Data reported in BindingDB's records for doi:10.1021/jm00087a004 (Harvard Medical School, 1992).

What was measured:
[1] = Binding affinity towards Opioid receptor delta 1
[2] = Binding affinity towards Opioid receptor delta 1; remark: listed apart in the source

Compound	Ki [1] [nM]	Ki [2] [nM]
CN1CCC2(c3cccc(O)c3)CCCC1C2 (stereo not drawn)	> 500	
CN1CCC2(c3cccc(O)c3)CCCC1[C@@H]2O (stereo partly drawn)		> 500
CN1CCC2(c3cccc(O)c3)CCCC1[C@H]2O (stereo partly drawn)		420
